The text below walks through data of PubChem BioAssay (NCI).

Molecules are shown by their SMILES.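 Interpolation was linear, between the two tested concentrations surrounding the appropriate level; five concentrations were tested over 48 hours in 96-well plates. TGI is the concentration that stops growth completely.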 Bounds are passed on as bounds.

Among the test systems are HCC-2998 colon; HOP-62 NSCLC; MCF7 breast; NCI-H522 lung; OVCAR-5 ovarian; SF-295 CNS; SK-OV-3 ovarian; SN12C renal; SNB-75 CNS; SW-620 colon; UACC-62 melanoma.
What all share (assay): growth of human tumour cells (NCI), 48 h

Consider `O=C(CCc1ccc(O)c(O)c1)NCCc1cc(O)c(O)c(O)c1`, for which the TGI with HCC-2998 colon is over 100 µM; in the assay with HOP-62 NSCLC it was over 100 µM; in the assay with MCF7 breast it was 21.7 µM; with NCI-H522 lung it was 40.2 µM; in the assay with OVCAR-5 ovarian, over 100 µM; in the assay with SF-295 CNS it was 33.3 µM. The TGI in the assay on SK-OV-3 ovarian was over 100 µM; with SN12C renal, 31.9 µM; in the assay on SNB-75 CNS, over 100 µM; with SW-620 colon, 35.5 µM; in the assay with UACC-62 melanoma, over 100 µM.
In the case of `CCCCCCCCCCCCCCCC(=O)Nc1ccn(C2CCC(COP(=O)(O)OCC3OC(n4cc(F)c(=O)[nH]c4=O)CC3OC(C)=O)O2)c(=O)n1` (stereo not drawn), the TGI in the assay on HCC-2998 colon is over 48.2 µM; in the assay with HOP-62 NSCLC, 37.7 µM; in the assay with MCF7 breast, 44.1 µM; with NCI-H522 lung, 27.7 µM; in the assay on OVCAR-5 ovarian, over 74.5 µM; in the assay with SF-295 CNS it was 29.6 µM. The TGI in the assay with SK-OV-3 ovarian was over 90.2 µM; with SN12C renal it was over 73.7 µM; in the assay on SNB-75 CNS, over 67.1 µM; with SW-620 colon it was over 52.5 µM; in the assay with UACC-62 melanoma it was 61.6 µM.
For `O=C(NCCc1ccccc1)c1cc(/C=C/c2cc(O)ccc2O)ccc1O`, the TGI is 21.7 µM in the assay on HCC-2998 colon; 11.9 µM with HOP-62 NSCLC; 9.42 µM with MCF7 breast; 4.32 µM in the assay on NCI-H522 lung; 25.3 µM in the assay with OVCAR-5 ovarian; 35.2 µM with SF-295 CNS. Moreover, the TGI is 26.4 µM with SK-OV-3 ovarian; 19 µM in the assay on SN12C renal; 13.7 µM in the assay with SNB-75 CNS; over 45.5 µM with SW-620 colon; 5.03 µM in the assay with UACC-62 melanoma.
As for `CCCCCCCc1cscc1-c1cscc1Br`, the TGI is 75.6 µM in the assay with HCC-2998 colon; over 100 µM with HOP-62 NSCLC; over 100 µM in the assay with MCF7 breast; 61.9 µM in the assay on NCI-H522 lung; 89.4 µM with OVCAR-5 ovarian; 79.8 µM in the assay on SF-295 CNS. The TGI with SK-OV-3 ovarian is over 100 µM; in the assay on SN12C renal, over 100 µM; in the assay on SNB-75 CNS it was 87 µM; with SW-620 colon, over 100 µM; in the assay with UACC-62 melanoma, over 100 µM.
As for `OCC1OC(n2cnc3c(SCc4ccccc4)ncnc32)C(O)C1O` (stereo not drawn), the TGI with HCC-2998 colon, with HOP-62 NSCLC, in the assay with MCF7 breast, in the assay on NCI-H522 lung, in the assay on OVCAR-5 ovarian and in the assay with SF-295 CNS was over 100 µM throughout. For the same compound, the TGI in the assay on SK-OV-3 ovarian, in the assay on SN12C renal, with SNB-75 CNS, in the assay on SW-620 colon and with UACC-62 melanoma was over 100 µM each time.
As for `c1ccc(-c2cc(-c3ccncc3)cc(-c3ccncc3)n2)cc1`, the TGI with HCC-2998 colon, in the assay with HOP-62 NSCLC, with MCF7 breast, with NCI-H522 lung, in the assay on OVCAR-5 ovarian and in the assay with SF-295 CNS was over 100 µM throughout. Besides, the TGI in the assay on SK-OV-3 ovarian was over 100 µM; with SN12C renal it was over 100 µM; with SNB-75 CNS, 99.1 µM; with SW-620 colon it was over 100 µM; in the assay on UACC-62 melanoma it was over 100 µM.
In the case of `CCN(CC)C(=S)N/N=C/c1cc(OC)ccc1O`, the TGI was 27.8 µM in the assay on HCC-2998 colon; over 100 µM with HOP-62 NSCLC; 9.84 µM in the assay on MCF7 breast; over 100 µM in the assay on NCI-H522 lung; over 100 µM in the assay with OVCAR-5 ovarian; over 100 µM in the assay with SF-295 CNS. The TGI in the assay on SK-OV-3 ovarian is over 100 µM; with SN12C renal, 90.6 µM; in the assay with SNB-75 CNS, over 100 µM; in the assay on SW-620 colon it was over 100 µM; in the assay on UACC-62 melanoma, 21.6 µM.
For the compound `c1ccc2cc(CNCCCCNCCCNCc3ccc4ccccc4c3)ccc2c1`, the TGI in the assay on HCC-2998 colon was 0.944 µM; in the assay on HOP-62 NSCLC it was 3.31 µM; with MCF7 breast, 3.06 µM; in the assay on NCI-H522 lung, 2.78 µM; in the assay on OVCAR-5 ovarian, 3.61 µM; in the assay on SF-295 CNS, 2.96 µM. Also, the TGI in the assay on SK-OV-3 ovarian was 3.48 µM; in the assay on SN12C renal it was 0.879 µM; in the assay with SNB-75 CNS it was 2.95 µM; in the assay on SW-620 colon, 0.915 µM; in the assay on UACC-62 melanoma it was 3.52 µM.
Take `CCCn1c(=O)c2nn3c(=O)n(CCC)c(=O)c3nn2c1=O`: the TGI in the assay on HCC-2998 colon, in the assay with HOP-62 NSCLC, with MCF7 breast, in the assay with NCI-H522 lung, in the assay with OVCAR-5 ovarian and with SF-295 CNS was over 100 µM throughout. In addition, the TGI in the assay with SK-OV-3 ovarian, in the assay on SN12C renal, in the assay with SNB-75 CNS, with SW-620 colon and in the assay with UACC-62 melanoma was over 100 µM each time.
On to `Cc1cccc2c1c(=O)c1c(O)cc3c(c1n2C)C=CC(C)(C)O3`, for which the TGI in the assay with HCC-2998 colon, in the assay on HOP-62 NSCLC, with MCF7 breast, in the assay on NCI-H522 lung, in the assay on OVCAR-5 ovarian and in the assay with SF-295 CNS was over 100 µM each time. Moreover, the TGI with SK-OV-3 ovarian, in the assay on SN12C renal, in the assay on SNB-75 CNS, with SW-620 colon and in the assay on UACC-62 melanoma was over 100 µM each time.
As for `Nc1nc(Br)nc2ncn(C3CC(O)C(CO)O3)c12` (stereo not drawn), the TGI in the assay with HCC-2998 colon, with HOP-62 NSCLC, in the assay with MCF7 breast, in the assay with NCI-H522 lung, in the assay with OVCAR-5 ovarian and in the assay on SF-295 CNS was over 100 µM in each case. Further, the TGI in the assay with SK-OV-3 ovarian, in the assay with SN12C renal, in the assay with SNB-75 CNS, in the assay on SW-620 colon and in the assay on UACC-62 melanoma was over 100 µM in each case.
With `C=CC(OC(=O)C(C)C)c1ccc(OC(=O)C(C)C)cc1` (stereo not drawn), the TGI stood at 26.7 µM in the assay with HCC-2998 colon; 22.6 µM with HOP-62 NSCLC; 12.2 µM in the assay with MCF7 breast; 3.56 µM in the assay with NCI-H522 lung; 20.2 µM with OVCAR-5 ovarian; 29.1 µM in the assay on SF-295 CNS. The TGI in the assay with SK-OV-3 ovarian amounted to 34 µM; in the assay on SN12C renal, 30 µM; with SNB-75 CNS, 28.6 µM; with SW-620 colon, 20.7 µM; with UACC-62 melanoma, 31 µM.
Regarding `Cc1cc(C)c(S(=O)(=O)N(CCCN)OCCON(CCCN)S(=O)(=O)c2c(C)cc(C)cc2C)c(C)c1`, the TGI in the assay with HCC-2998 colon is 4.24 µM; in the assay with HOP-62 NSCLC it was 11.5 µM; with MCF7 breast it was over 100 µM; with NCI-H522 lung, 13.6 µM; with OVCAR-5 ovarian, 4.99 µM; in the assay with SF-295 CNS it was 67 µM. For the same compound, the TGI in the assay on SK-OV-3 ovarian is 24.8 µM; in the assay on SN12C renal, over 100 µM; with SNB-75 CNS, 12.6 µM; in the assay with SW-620 colon, over 100 µM; in the assay on UACC-62 melanoma it was 21.2 µM.
